{
  "source": "patent US20090018157A1",
  "about": "“Chemical compounds” (priority 2003, published 2009)",
  "key": {"glucokinase (GLK)": {"target": "T1, glucokinase (GLK) (Homo sapiens, UniProt P35557)", "T1 sequence (P35557 1-466 isoform P35557-2)": "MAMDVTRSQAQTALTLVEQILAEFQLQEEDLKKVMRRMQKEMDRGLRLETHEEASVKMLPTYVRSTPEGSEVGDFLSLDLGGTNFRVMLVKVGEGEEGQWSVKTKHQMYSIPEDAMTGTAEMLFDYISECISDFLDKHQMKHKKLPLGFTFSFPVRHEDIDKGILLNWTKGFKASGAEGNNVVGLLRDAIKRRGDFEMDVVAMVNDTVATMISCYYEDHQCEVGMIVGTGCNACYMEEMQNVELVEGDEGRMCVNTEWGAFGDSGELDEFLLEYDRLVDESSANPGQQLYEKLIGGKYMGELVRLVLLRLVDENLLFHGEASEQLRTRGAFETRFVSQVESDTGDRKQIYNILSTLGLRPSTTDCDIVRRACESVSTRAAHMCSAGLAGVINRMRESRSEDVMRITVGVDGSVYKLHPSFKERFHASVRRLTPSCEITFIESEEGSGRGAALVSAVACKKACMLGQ", "experiment": "biochemical"}, "[1]": {"experiment": "Plasma protein binding by equilibrium dialysis", "format": "in vitro ADME", "conditions": "rat, 18 hours at 37° C., plasma vs isotonic phosphate buffer pH 7.4, read-out: % free in plasma", "protocol": "The plasma protein binding of compounds was measured using the equilibrium dialysis technique (W. Lindner et al, J. Chromatography, 1996, 677, 1-28). Compound was dialysed at a concentration of 20 μM for 18 hours at 37° C. with plasma and isotonic phosphate buffer pH 7.4 (1 ml of each in the dialysis cell). A Spectrum® 20-cell equilibrium dialyser was used together with Teflon, semi-micro dialysis cells and Spectra/Por®2 membrane discs with a molecular weight cut off 12-14000 Dalton, 47 mm (supplied by PerBio Science UK Ltd, Tattenhall, Cheshire). Plasma and buffer samples are removed following dialysis and analysed using HPLCUV/MS (high performance liquid chromatography with UV and mass spec detection) to give the % free level in plasma."}, "[2]": {"experiment": "Plasma levels following oral administration to rats", "format": "in vivo", "conditions": "rat, normalised dose of 1 mg of compound per kilogram of rat body weight", "protocol": "Planetary Milled compounds [15 mins, 500 rpm, 5 Zirconium Balls, in a Puluerisette 7 Mill (Glen Creston Ltd, Stanmore, Middlesex, UK)] were suspended in 0.5% HPMC Tween and dosed to High Fat Fed (Research Diets, D12451, ad lib feeding 14 days) Female Alderley Park Zucker or Alderley Park Wistar rats at rate of 5 mls/kg, at doses between 0.3 and 10 mg/kg by oral gavage.\nSamples of plasma were obtained either by conscious blood sampling or terminal blood sampling as follows:\nConscious blood sampling (for compound level or blood chemistry)—Intravenous blood samples were taken from tail vein using 600 μl Starstedt Multivette (EDTA) and 22 G needle at the required time point. […]\nThe reconstituted samples were then analysed using high performance liquid chromatography with tandem mass spectrometry detection (HPLC-MS-MS)”. […]\nThe concentration of test samples was determined from the ratio of the peak height of the test sample to the peak height of the internal standard. The concentration of the test sample was calculated with reference to a standard curve relating the ratio to the concentration prepared by using known concentrations of test sample added to samples of rat plasma using (3-isopropoxy-5-benzyoxy-benzoyl)amino pyridine 3-carboxylic acid as an internal standard, treated as described above."}, "[3]": {"experiment": "Estimation of plasma half-life", "format": "in vivo", "conditions": "rat, typically determined following intravenous administration, read-out: t½ (half life in plasma) (converted)", "description": "The plasma half-life is the time taken for the concentration of compound in the plasma to decline to half of its original value. This is typically determined following intravenous administration of the test compound, followed by measurement of the compound concentrations in plasma samples as described above. The plasma half-life is estimated from a semilogarithmic plot, plotting the log of the plasma concentration (lnCp) against sample time (t, linear). The apparent first-order elimination rate constant, k, is equal to the slope of the line, and the elimination half-life (t½) is […] (Gibaldi, M and Perrier, D, 1975 Pharmacokinetics, Marcel Dekker, New York): […]"}},
  "data": [
    {"smiles": "COC[C@H](C)Oc1cc(Oc2ccc3c(c2)OCO3)cc(C(=O)Nc2ccc(C(=O)O)cn2)c1", "note": "[Example 2, 6-{[(3-(1,3-benzodioxol-5-yloxy)-5-{[(1S)-1-methyl-2-(methyloxy)ethyl]oxy}phenyl)carbonyl]amino}pyridine-3-carboxylic acid]", "values": [
      {"measurement": "EC50", "setting": "glucokinase (GLK)", "result": 60, "unit": "nM"},
      {"measurement": "fraction unbound at 18 hours, 20 μM", "setting": "[1]", "result": 0.0026},
      {"measurement": "Peak Blood levels (including both bound and free)", "setting": "[2]", "result": 2.7, "unit": "µM"},
      {"measurement": "half-life", "setting": "[3]", "result": 6.4, "unit": "h"}
    ]}
  ]
}
